Test results reported in patent publication US11319300B2, “Polyfluoro-substituted aromatic heterocyclic derivative, pharmaceutical composition containing same, and applications thereof” (ZHEJIANG UNIVERSITY, priority 2017, dated 2022).

Legend:
PKC = assay: Kinase selectivity assay (Caliper), PKC; type: biochemical; conditions: PKC versus Akt1
Method: (§1) A Sixty-Second Embodiment: Kinase Selectivity Assay Test Compound Configuration 1) DMSO was configured with 50× compound stock solution for use. 2) Each compound was diluted in a 96-well plate at a concentration gradient of 5 to 7 to ensure a drug volume of 10 μl per well, to 6 to 7 concentrations, while 100 μl of DMSO was added as a blank control group, and a negative control group without an enzyme substrate was added. 3) Another 96-well plate was prepared, and 10 μl of the above compound was added to 90 μl of 1×kinase base buffer and mixed for 10 min. The board to be tested was prepared: 1) Take a mixture of 5 μl to 384-well plates in a 96-well plate of the above configuration, and per compound has two replicate wells. Kinase Reaction: 1) Configurate a 2.5×kinase solution and add the corresponding 1×kinase base buffer; 2) Configurate a 2.5× polypeptide solution, add a FAM-labeled polypeptide and ATP in a 1×kinase base buffer; 3) 10 μl of 2.5× kinase solution was added to the 384-well plate to be tested, put at room temperature for 10 min, then 10 μl of 2.5× polypeptide solution was added, and after reacting at 28° C. for 1 h, 25 μl of reaction stop buffer was added. The Caliper program reads the plate and uses the data to obtain the IC50 value of the corresponding compound inhibiting kinase. […]

PKA = PKA (Homo sapiens, UniProt P17612); assay: Kinase selectivity assay (Caliper), PKA; type: biochemical; conditions: PKA versus Akt1
Method: as §1

hERG potassium channel = target: T1, hERG potassium channel (Homo sapiens, UniProt Q12809); assay: hERG potassium channel inhibition, manual whole-cell patch clamp in CHO hERG cells; type: cell-based; conditions: 3 μM, CHO hERG cells, patch clamp
T1 construct: host or cells: CHO
Method: A Sixty-Third Embodiment: hERG Potassium Channel Inhibition Activity Experiment
The cells used in this assay were CHO cell lines transfected with hERG cDNA and stably expressing the hERG channel (supplied by Sophion Bioscience, Denmark). The cells were cultured in medium containing the following components (all from Invitrogen): Ham's F12 medium, 10% (v/v) inactivated fetal bovine serum, 100 μg/ml hygromycin B, and 100 μg/ml Geneticin. 2.1.2CHO hERG cells were grown in a Petri dish containing the above culture solution, and cultured in an incubator containing 5% of CO2 at 37° C. 24 to 48 hours prior to electrophysiological experiments, CHO hERG cells were transferred to circular glass slides placed in petri dishes and grown under the same culture and culture conditions as above. The density of CHO hERG cells on each circular slide requires that most cells achieve independent, individual requirements.
2. Compound Treatment and Dilution
To obtain the IC50 of the compound, we selecte the following concentrations (30, 10, 3, 1, 0.3, and 0.1 μM) for testing. Prior to testing, the […] were first diluted to 10, 3, 1, 0.3, and 0.1 mM stock solution in gradual dilution with DMSO and then diluted to the final μM test concentration with extracellular fluid. The final concentration of DMSO in each of the other compound solutions was 0.1% except that the DMSO concentration in the 30 μM compound test solution was 0.3%. The positive control Cisapride (cishabili) was tested at a concentration of 0.1 μM. All compound solutions were sonicated and shaken for 5 to 10 minutes to ensure complete dissolution of the compound.
3. Electrophysiological Recording System and Data Analysis
This experiment uses a manual patch clamp system (HEKA EPC-10 signal amplifier and digital conversion system, purchased from HEKA Electronics, Germany) for the recording of whole cell currents. Round slide with CHO hERG cells on the surface was placed in an electrophysiology recording cell under an inverted microscope. The extracellular fluid was continuously perfused in the recording tank (about 1 ml per minute). The experimental procedure uses conventional whole-cell patch clamp current recording techniques. Unless otherwise stated, the experiments were carried out at regular room temperature (˜25° C.). The cells were clamped at a voltage of −80 mV. The cell clamp voltage was depolarized to +20 mV to activate the hERG potassium channel, and after 5 seconds it was clamped to −50 mV to eliminate inactivation and generate tail current. The tail current peak was used as the value of the hERG current magnitude. After the hERG potassium current recorded in the above step was stabilized under the continuous extracellular fluid perfusion in the recording tank, the drug to be tested can be superimposed and filled until the inhibitory effect of the drug on the hERG current reaches a steady state. Generally, the recent three consecutive current recording lines were recombined as a criterion for judging whether or not the state is stable. After reaching a steady state, extracellular fluid perfusion rinse until hERG current returns to the size before adding drug. One cell can test one or more drugs, or multiple concentrations of the same drug, but need to be flushed with extracellular fluid between different drugs. Cisapride (cisapride, purchased from Sigma) was used in the experiment as a positive control to ensure that the cells used were of normal quality. The test data was analysed by HEKA Patchmaster, Microsoft Excel and data analysis software provided by Graphpad Prism.

Akt2 = Akt2 (Homo sapiens, UniProt P31751); assay: Kinase selectivity assay (Caliper), Akt2; type: biochemical; conditions: Akt2 versus Akt1
Method: as §1

AKT1/PKBα = target: T2, AKT1/PKBα (Homo sapiens, UniProt P31749); assay: Akt1 enzyme inhibitory activity, AKT1/PKBα KinEASE FP Fluorescein Green Assay; type: biochemical; conditions: fluorescence polarization kit assay; read-out: Akt1 IC50 (grade)
T2 construct: purchased
Method: Compound AZD5363 (NCT02208375, NCT02208375, NCT01625286), which have entered the clinical phase II study, was used as a positive control, and the compound was assayed against common tumour cell lines (human ovarian cancer cell line OVCAR-8 and human colon cancer cell line HCT-116) by MTT assay, at the same time, the akt1 enzyme inhibitory activity (IC50) was evaluated using a commercial Akt1 kit.
2) Test method for the inhibitory activity of the compound of the present invention against Akt1 enzyme:
The AKT1/PKBα KinEASE™ FP Fluorescein Green Assay (Kinase Green Fluorescence Detection System) was used to detect the inhibitory activity of the compound on AKT1/PKBα.
Fluorescence polarization detection protein kinase B employs the principle of a competitive reaction: a fluorescently labeled phosphorylated tracer and an unlabeled phosphorylated product produced by the reaction of protein kinase B will compete with the anti-serine antibody for binding. In a reaction mixture […], when a part of the fluorescent tracer binds to the antibody, it causes a higher polarization value. However, in the reaction solution mixture containing the phosphorylated product, less tracer binds to the antibody (the fluorescent tracer was replaced from the antibody) and the emitted signal was depolarized. Therefore, the change in polarization was directly related to the activity of protein kinase B in the reaction.
The compound of the present invention and the positive control AZD5363 were dissolved in dimethyl sulfoxide (DMSO) and diluted to a concentration of 50 μM. At room temperature, 0.25 μl of the compound sample and the positive control at a concentration of 50 μM were taken and added to the 384-well plate, and three parallel wells were set for each sample, and then 10 μl of STK Substrate 3, Working Solution, 5 μl AKT1/PKBα Working Solution, 10 μl ATP Working Solution were added to each sample well plate with vibrating gently and shaking for a few minutes. The reaction starts after 10 μl of ATP Working Solution was added to the well, and the reaction was timed at room temperature for 1 hour. After one hour, 5 μl of STK Stop Mix and 5 μl of STK Antibody Mix were added to each well respectively to stop the reaction. After the addition completes, it was allowed to stand at room temperature for four hours, and the polarization value of the sample was detected by the fluorescence polarization of the microplate reader (it was effective to detect its signal within 24 hours), and the inhibition rate of the compound was calculated by the polarization value, and then IC50 was calculated.
Four sets of controls were set in the experiment, namely Buffer Control Wells, Tracer Control Wells, No Enzyme Wells, and a blank dimethyl sulfoxide control. The resulting data was used to calculate the inhibition rate.
The activity of the compound was divided into three grades according to the size of the IC50 of the Akt inhibitory activity: “+++”, 1 nM<IC50<10 nM; “++”, 10 nM<IC50<50 nM; “+”, 50 nM<IC50.

Akt3 = Akt3 (Homo sapiens, UniProt Q9Y243); assay: Kinase selectivity assay (Caliper), Akt3; type: biochemical; conditions: Akt3 versus Akt1
Method: as §1

HGC27 = assay: Tumour cell proliferation inhibition, MTT assay, HGC27; type: cell-based, human; conditions: Homo sapiens, HGC-27, 72 h
CEM-C1 = assay: Tumour cell proliferation inhibition, MTT assay, CEM-C1; type: cell-based, human; conditions: Homo sapiens, CEM/C1, 72 h

T1 sequence (Q12809 whole entry): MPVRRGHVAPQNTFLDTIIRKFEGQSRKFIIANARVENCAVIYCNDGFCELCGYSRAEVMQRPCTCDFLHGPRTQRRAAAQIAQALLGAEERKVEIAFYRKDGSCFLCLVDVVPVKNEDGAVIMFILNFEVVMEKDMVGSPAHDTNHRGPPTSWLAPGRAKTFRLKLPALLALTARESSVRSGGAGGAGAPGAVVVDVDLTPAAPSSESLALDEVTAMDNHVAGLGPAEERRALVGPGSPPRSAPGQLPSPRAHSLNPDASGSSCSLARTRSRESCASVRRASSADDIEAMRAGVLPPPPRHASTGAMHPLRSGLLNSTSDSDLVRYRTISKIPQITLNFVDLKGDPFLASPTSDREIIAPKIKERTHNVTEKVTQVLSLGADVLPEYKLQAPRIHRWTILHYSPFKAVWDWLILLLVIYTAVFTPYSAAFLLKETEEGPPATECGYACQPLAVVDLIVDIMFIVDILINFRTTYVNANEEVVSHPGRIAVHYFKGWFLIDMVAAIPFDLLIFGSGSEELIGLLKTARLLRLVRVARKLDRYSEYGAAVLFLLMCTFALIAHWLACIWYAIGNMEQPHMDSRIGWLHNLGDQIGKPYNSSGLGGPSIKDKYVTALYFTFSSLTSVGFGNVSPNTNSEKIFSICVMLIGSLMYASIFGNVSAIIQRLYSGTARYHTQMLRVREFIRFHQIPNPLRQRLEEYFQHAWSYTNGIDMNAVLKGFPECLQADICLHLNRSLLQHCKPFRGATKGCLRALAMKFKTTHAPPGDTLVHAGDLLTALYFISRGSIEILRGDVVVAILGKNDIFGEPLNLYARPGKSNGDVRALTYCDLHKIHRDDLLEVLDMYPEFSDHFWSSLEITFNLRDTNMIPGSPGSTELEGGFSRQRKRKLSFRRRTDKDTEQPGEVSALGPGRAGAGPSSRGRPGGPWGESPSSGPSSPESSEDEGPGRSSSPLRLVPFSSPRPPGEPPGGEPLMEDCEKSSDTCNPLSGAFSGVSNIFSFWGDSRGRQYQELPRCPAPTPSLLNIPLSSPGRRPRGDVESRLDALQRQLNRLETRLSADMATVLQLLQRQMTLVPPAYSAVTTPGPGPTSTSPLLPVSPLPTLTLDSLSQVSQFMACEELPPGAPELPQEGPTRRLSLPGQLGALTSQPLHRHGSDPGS
Chain of Akt3 (Q9Y243 whole entry): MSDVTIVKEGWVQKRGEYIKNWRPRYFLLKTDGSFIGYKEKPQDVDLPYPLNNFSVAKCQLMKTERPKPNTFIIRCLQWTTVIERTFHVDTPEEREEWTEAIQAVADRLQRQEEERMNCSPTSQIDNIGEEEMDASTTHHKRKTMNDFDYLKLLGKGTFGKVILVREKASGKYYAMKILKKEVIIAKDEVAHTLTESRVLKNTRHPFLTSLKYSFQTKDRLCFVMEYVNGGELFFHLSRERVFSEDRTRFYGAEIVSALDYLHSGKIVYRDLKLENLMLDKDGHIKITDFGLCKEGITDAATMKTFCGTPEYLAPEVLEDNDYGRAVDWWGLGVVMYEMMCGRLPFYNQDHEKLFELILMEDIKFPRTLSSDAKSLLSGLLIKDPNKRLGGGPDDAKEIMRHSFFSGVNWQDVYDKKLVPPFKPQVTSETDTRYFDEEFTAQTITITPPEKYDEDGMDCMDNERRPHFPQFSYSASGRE
Chain of Akt2 (P31751 whole entry): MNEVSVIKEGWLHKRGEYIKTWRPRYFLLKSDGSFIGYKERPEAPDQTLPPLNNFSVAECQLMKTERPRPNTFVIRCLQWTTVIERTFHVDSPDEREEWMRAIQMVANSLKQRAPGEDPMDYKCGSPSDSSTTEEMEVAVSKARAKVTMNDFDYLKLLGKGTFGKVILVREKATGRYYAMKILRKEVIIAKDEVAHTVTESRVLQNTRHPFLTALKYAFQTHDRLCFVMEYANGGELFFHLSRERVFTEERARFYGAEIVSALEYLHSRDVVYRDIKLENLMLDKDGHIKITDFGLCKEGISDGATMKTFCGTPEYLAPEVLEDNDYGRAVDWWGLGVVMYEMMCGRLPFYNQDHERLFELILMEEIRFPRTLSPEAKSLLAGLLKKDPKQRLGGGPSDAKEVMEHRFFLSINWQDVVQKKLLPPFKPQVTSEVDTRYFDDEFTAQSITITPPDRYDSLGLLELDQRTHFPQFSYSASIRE
T2 sequence (P31749 whole entry): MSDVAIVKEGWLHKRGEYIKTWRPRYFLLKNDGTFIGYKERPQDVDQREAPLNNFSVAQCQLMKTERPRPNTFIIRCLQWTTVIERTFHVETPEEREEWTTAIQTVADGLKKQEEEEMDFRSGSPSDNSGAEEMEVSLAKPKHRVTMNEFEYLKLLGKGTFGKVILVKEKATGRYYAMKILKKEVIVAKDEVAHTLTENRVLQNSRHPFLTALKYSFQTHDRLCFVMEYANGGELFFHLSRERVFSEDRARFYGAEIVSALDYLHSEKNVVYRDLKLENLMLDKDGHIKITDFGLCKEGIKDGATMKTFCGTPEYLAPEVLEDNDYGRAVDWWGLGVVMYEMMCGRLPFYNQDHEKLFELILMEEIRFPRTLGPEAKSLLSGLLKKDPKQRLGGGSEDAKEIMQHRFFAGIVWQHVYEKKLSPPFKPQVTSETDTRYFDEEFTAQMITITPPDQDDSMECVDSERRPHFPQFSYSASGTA

Row | Kinase selectivity: (PKC inhibitory activity IC50)/(Akt1 inhibitory activity IC50) (PKC) | Kinase selectivity: (PKA inhibitory activity IC50)/(Akt1 inhibitory activity IC50) (PKA) | Kinase selectivity: (Akt2 inhibitory activity IC50)/(Akt1 inhibitory activity IC50) (Akt2) | IC50 (AKT1/PKBα) [nM] | Kinase selectivity: (Akt3 inhibitory activity IC50)/(Akt1 inhibitory activity IC50) (Akt3) | IC50 (HGC27) [nM] | IC50 (CEM-C1) [nM] | Compound | hERG (Inhibition rate at 3 μM concentration) (hERG potassium channel) [%]
1 | 28-times | 1.2-times | – | – | – | – | – | Cn1ncc(Cl)c1-c1cc(C(=O)N[C@H](CN)Cc2ccc(F)c(F)c2)oc1Cl [GSK2141795, reference compound] | 50
2 | – | 1.3-times | 5.5-times | 10 to 50 | 4.1-times | 50 | 210 | Cn1nccc1-c1cc(F)c(C(=O)N[C@@H]2CNCC[C@H]2c2ccc(F)c(F)c2)c(F)c1 [VII-12] | –
